# Results published in ChEMBL document CHEMBL1127166, “The analgesic effect of epibatidine and isomers” (1993).
# How the values were obtained:
# Type in all cases: functional
# Mus musculus [1] = assay: Tested for the maximum possible analgesic effect along with naloxone (10 mg/kg) after 15 min at subcutaneous dosage of 10000 ug/kg
# Mus musculus [2] = assay: Tested for the maximum possible analgesic effect along with naloxone (10 mg/kg) after 30 min at subcutaneous dosage of 10000 ug/kg
# Mus musculus [3] = assay: Tested for the maximum possible analgesic effect along with naloxone (10 mg/kg) after 5 min at subcutaneous dosage of 10000 ug/kg
# Mus musculus [4] = assay: Tested for the maximum possible analgesic effect along with saline after 15 min at subcutaneous dosage of 10000 ug/kg
# Mus musculus [5] = assay: Tested for the maximum possible analgesic effect along with saline after 30 min at subcutaneous dosage of 1000-10000 ug/kg
# Mus musculus [6] = assay: Tested for the maximum possible analgesic effect along with saline after 30 min at subcutaneous dosage of 10000 ug/kg
# Mus musculus [7] = assay: Tested for the maximum possible analgesic effect along with saline after 5 min at subcutaneous dosage of 10000 ug/kg
# Mus musculus [8] = assay: Tested for the analgesic effect in the mouse tail-flick assay at 5 min after subcutaneous injection at dosage of 10-50 ug/kg; details: sc
# Mus musculus [9] = assay: Tested for the maximum possible analgesic effect of epibatidine after 15 min in mouse tail-flick assay at subcutaneous dosage of 10 ug/kg
# Mus musculus [10] = assay: Tested for the maximum possible analgesic effect of epibatidine after 30 min in mouse tail-flick assay at subcutaneous dosage of 10 ug/kg
# Mus musculus [11] = assay: Tested for the maximum possible analgesic effect of epibatidine after 5 min in mouse tail-flick assay at subcutaneous dosage of 10 ug/kg
# Mus musculus [12] = assay: Tested for the analgesic effect in the mouse tail-flick assay at 5 min after subcutaneous injection at dosage of 1000 ug/kg; details: sc
# Mus musculus [13] = assay: Tested for the maximum possible analgesic effect of epibatidine after 30 min in mouse tail-flick assay at subcutaneous dosage of 1000 ug/kg
# Mus musculus [14] = assay: Tested for the maximum possible analgesic effect of epibatidine after 5 min in mouse tail-flick assay at subcutaneous dosage of 1000 ug/kg
# Mus musculus [15] = assay: Tested for the maximum possible analgesic effect of epibatidine at 15 min in mouse tail-flick assay after subcutaneous dosage of 1000 ug/kg
# Mus musculus [16] = assay: Tested for the analgesic effect in the mouse tail-flick assay at 5 min after subcutaneous injection at dosage of 5-50 ug/kg
# Mus musculus [17] = assay: Tested for the maximum possible analgesic effect along with naloxone (10 mg/kg) after 15 min at subcutaneous dosage of 10 ug/kg
# Mus musculus [18] = assay: Tested for the maximum possible analgesic effect along with naloxone (10 mg/kg) after 30 min at subcutaneous dosage of 10 ug/kg
# Mus musculus [19] = assay: Tested for the maximum possible analgesic effect along with saline after 15 min at subcutaneous dosage of 10 ug/kg
# Mus musculus [20] = assay: Tested for the maximum possible analgesic effect along with saline after 30 min at subcutaneous dosage of 10 ug/kg
# Mus musculus [21] = assay: Tested for the maximum possible analgesic effect along with saline after 5 min at subcutaneous dosage of 10 ug/kg
# Mus musculus [22] = assay: Tested for the maximum possible analgesic effect along with naloxone (10 mg/kg) after 5 min at subcutaneous dosage of 10 ug/kg
# Mus musculus [23] = assay: Tested for maximum possible of analgesic effect of epibatidine after 5 min in mouse tail-flick assay at subcutaneous dosage of 10 ug/kg
# Mus musculus [24] = assay: Tested for the analgesic effect in the mouse tail-flick assay at 5 min after subcutaneous injection at dosage of 50-1000 ug/kg; details: sc
# Mus musculus [25] = assay: Tested for the maximum possible analgesic effect of epibatidine after 15 min in mouse tail-flick assay at subcutaneous dosage of 1000 ug/kg
structure (smiles),measurement,setting,value
CN1CC[C@]23c4c5ccc(O)c4O[C@H]2[C@@H](O)C=C[C@H]3[C@H]1C5.CN1CC[C@]23c4c5ccc(O)c4O[C@H]2[C@@H](O)C=C[C@H]3[C@H]1C5.O=S(=O)(O)O,Max possible effect,Mus musculus [1],3%
same,Max possible effect,Mus musculus [2],4%
same,Max possible effect,Mus musculus [3],0%
same,Max possible effect,Mus musculus [4],51%
same,Max possible effect,Mus musculus [5],4524%
same,Max possible effect,Mus musculus [6],94%
same,Max possible effect,Mus musculus [7],7%
CN1C2CCC1C(c1ccc(Cl)nc1)C2 (configuration not stated),ED50,Mus musculus [8],9 µg/kg
same,Max possible effect,Mus musculus [9],16%
same,Max possible effect,Mus musculus [10],8%
same,Max possible effect,Mus musculus [11],64%
CC(=O)N1C2CCC1C(c1ccc(Cl)nc1)C2 (configuration not stated),ED50,Mus musculus [12],> 1000 µg/kg
same,Max possible effect,Mus musculus [13],0%
same,Max possible effect,Mus musculus [14],4%
same,Max possible effect,Mus musculus [15],3%
Clc1ccc(C2CC3CCC2N3)cn1 (racemic) [EPIBATIDINE],ED50,Mus musculus [16],10 µg/kg
same,Max possible effect,Mus musculus [9],23%
same,Max possible effect,Mus musculus [10],5%
same,Max possible effect,Mus musculus [11],47%
Clc1ccc(C2CC3CCC2N3)cn1 (stereo in doubt; d-1) [EPIBATIDINE],ED50,"Mus musculus [16]; Mus musculus, Tail, sc, 5 min, read-out: ED50",7 µg/kg
same,Max possible effect,Mus musculus [17],49%
same,Max possible effect,Mus musculus [18],0%
same,Max possible effect,Mus musculus [19],48%
same,Max possible effect,Mus musculus [20],4%
same,Max possible effect,Mus musculus [21],86%
same,Max possible effect,Mus musculus [9],32%
same,Max possible effect,Mus musculus [10],3%
same,Max possible effect,Mus musculus [11],89%
same,Max possible effect,Mus musculus [22],77%
Clc1ccc(C2CC3CCC2N3)cn1 (stereo in doubt; l-1) [EPIBATIDINE],ED50,Mus musculus [16],9 µg/kg
same,Max possible effect,Mus musculus [23],58%
same,Max possible effect,Mus musculus [9],46%
same,Max possible effect,Mus musculus [10],1%
Clc1ccc(C2CC3CCC2N3)cn1 (configuration not stated) [EPIBATIDINE],ED50,Mus musculus [24],> 1000 µg/kg
same,Max possible effect,Mus musculus [25],10%
same,Max possible effect,Mus musculus [13],11%
same,Max possible effect,Mus musculus [14],5%
